PubChem BioAssay AID1996
In brackets after ≈: the same amount, converted by molar mass.

Conditions: buffer; pH 7.4; 200.0 µM

Row | Compound | solubility kinetic [mg/mL]
1 | CCC(OC(=O)c1ccco1)C(=O)NC1CCCC1 (stereo not given) | > 0.0398
2 | CCOC(=O)N1CCN(S(=O)(=O)c2ccc(C)cc2)CC1 | 0.0281 (≈ 90 µM)
3 | CC(Oc1ccccc1F)C(=O)NC1CCS(=O)(=O)C1 (stereo not given) | > 0.0452
4 | CCc1cc(=O)oc2cc(OCC(=O)N3CCC(C(N)=O)CC3)ccc12 | > 0.0538
5 | CCCc1cc(=O)oc2cc(OCC(=O)N3CCC(C(N)=O)CC3)ccc12 | > 0.0559
6 | O=C(Nc1ccc(F)c(Cl)c1)c1cccnc1 | 0.0245 (≈ 97.7 µM)
7 | CC1CC(C)CN(C(=O)COC(=O)c2ccc3ncsc3c2)C1 (stereo not given) | 0.0449 (≈ 135 µM)
8 | CC(=O)OCCN(C)c1cc(SC(C)C)c2nonc2c1[N+](=O)[O-] | 0.0512 (≈ 144 µM)
9 | COc1cccc(NC(=O)CNC(=O)c2ccc(C)o2)c1 | > 0.0432
10 | COc1cccc(C(=O)Nc2c[nH]c(=O)[nH]c2=O)c1 | 0.0361 (≈ 138 µM)
11 | COc1ccc(CNc2ccc(C)c(C)c2)cc1 | 0.0015 (≈ 6.22 µM)
12 | C[n+]1ccc(C(=O)NCc2ccccc2)cc1.[I-] | 0.0393
13 | Cc1ccsc1CNC1C2CC3CC(C2)CC1C3.Cl (stereo not given) | 0.0399
14 | NC(=S)NNc1cccc2cccnc12 | > 0.0327
15 | CCOC(=O)C(O)(c1ccc(NC(=O)NC)cc1)C(F)(F)F (stereo not given) | > 0.048
16 | O=C(CCN1C(=O)c2ccccc2C1=O)NCc1ccc(F)cc1 | > 0.0489
17 | CCOc1ncccc1C(=O)NCC(c1ccccc1)N(C)C (stereo not given) | > 0.047
18 | Cn1c(SCC(=O)NC2CC2)nnc1-c1ccccn1 | > 0.0434
19 | CN(CC1COc2ccccc2O1)C(=O)CSc1nncs1 (stereo not given) | > 0.0506
20 | COc1ccc(NC(=O)COc2ccc(C)cc2)c([N+](=O)[O-])c1 | < 0.0003
21 | NC(N)=Nc1nc2cc([N+](=O)[O-])ccc2o1 | 0.0064 (≈ 28.9 µM)
22 | CC1CCN(C(=O)COc2cccc3c2CCN(Cc2ccccc2)C3=O)CC1 | 0.0559 (≈ 142 µM)
23 | Cc1ccccc1NCc1ccc([N+](=O)[O-])s1 | 0.0137 (≈ 55.2 µM)
24 | O=C(c1cc(Br)c(Br)s1)N1CCc2ccccc2C1 | 0.007 (≈ 17.5 µM)
25 | Nc1ccc(Cl)c(S(=O)(=O)Nc2ccccc2Cl)c1 | > 0.0476
26 | Cc1cc(O)c(C(=O)Nc2cccc(Cl)c2)c(=O)n1C | < 0.0003

Row | Compound | solubility kinetic [mg/mL]
27 | c1ccc(CCOn2ccnc2)cc1 | > 0.0282
28 | CCCCCCOC(=O)Cc1c(C)nc(N)[nH]c1=O | > 0.0401
29 | CC(C)(C)C(=O)O/N=C1\CCS(=O)(=O)c2sccc21 | 0.0365 (≈ 121 µM)
30 | O=C(Nc1ccccc1N1CCCC1)C1=COCCO1 | > 0.0411
31 | COC(=O)Cn1c2ccc(Cl)cc2c2nc(C)sc21 | 0.0353 (≈ 120 µM)
32 | COc1ccccc1NC(=O)Nc1sccc1-c1nc2ccccc2s1 | 0.0028 (≈ 7.34 µM)
33 | O=C(O)C1CCCCC1C(=O)NC1C2CC3CC(C2)CC1C3 (stereo not given) | 0.0424 (≈ 139 µM)
34 | COc1ccc(S(=O)(=O)N2CCN(c3cnccn3)CC2)cc1OC | > 0.0547
35 | COc1cccc(NC(=O)Nc2nc(SC)ns2)c1 | 0.0013 (≈ 4.39 µM)
36 | Cc1cccc(NC(=O)c2c(-c3ccccc3)noc2C)n1 | 0.0349 (≈ 119 µM)
37 | Cc1cccc(C)c1OCCN1CCCC1 | 0.0287 (≈ 131 µM)
38 | Cn1ccnc1Sc1ccc(C=O)cc1[N+](=O)[O-] | > 0.0395
39 | COc1cccc(-n2cn[nH]c2=S)c1 | > 0.0311
40 | CN1CCN(c2nc(-c3ccc(Cl)c(Cl)c3)nc3ccccc23)CC1 | 0.0004 (≈ 1.07 µM)
41 | Cc1ccc(C2=NC3(CCCC3)NC2=S)cc1 | 0.0022 (≈ 9 µM)
42 | O=C(Nc1ccc(N2CCN(c3ccccc3)CC2)c(F)c1)C1CC1 | < 0.0002
43 | CC1(C)Oc2ccc(C(=O)NC3CCCCC3)cc2N(CC#N)C1=O | 0.0129 (≈ 37.8 µM)
44 | COc1ccc(NC(=O)c2cc3cc(C)ccc3n2C)c(OC)c1 | 0.0027 (≈ 8.32 µM)
45 | O=C(O)c1ncsc1-c1ccccc1 | 0.0291 (≈ 142 µM)
46 | NC(=O)[C@@H]1CCCN1Cc1nc(Cc2ccccc2F)no1 | > 0.0456
47 | Cc1ccc(OC(C)C(=O)Nc2ccncc2)cc1 (stereo not given) | 0.0317 (≈ 124 µM)
48 | Cc1cccc(NC(=O)CCC(=O)c2cccs2)n1 | > 0.0412
49 | CCOC(=O)C1CCN(Cc2cccc(Oc3ccccc3)c2)CC1 | 0.017 (≈ 50.1 µM)
50 | CC1(C)CC(=O)C(C2=NC3(CCCCCC3)Cc3ccccc32)=C(O)C1 | 0.0498 (≈ 142 µM)
51 | Cc1cccc(C(=O)OCC(=O)NCCCc2ccccc2)c1O | 0.0123 (≈ 37.6 µM)
52 | O=C(OCC(=O)N1CCN(C(=O)c2ccco2)CC1)c1ccc(Cl)nc1 | > 0.0567

Row | Compound | solubility kinetic [mg/mL]
53 | Cc1ccccc1C(=O)Nc1c(C)[nH]c(=O)[nH]c1=O | > 0.0389
54 | COc1ccc(OCCC(=O)OCC(=O)NCCc2ccccc2)cc1 | 0.0528 (≈ 148 µM)
55 | Cc1ccc(C(OC(=O)c2ccco2)C(=O)NC(C)(C)C)cc1 (stereo not given) | 0.017 (≈ 53.9 µM)
56 | Cc1ccccc1C(=O)NCC(=O)N1CCN(c2ccccn2)CC1 | > 0.0508
57 | CCOC(=O)C1(CCOC)CCN(Cc2ccncc2)CC1 | > 0.046
58 | COc1ccc(CCNS(=O)(=O)c2cn(C)nc2C)cc1 | > 0.0464
59 | C=CCCC(=O)N1CCCC(C(=O)c2cccc(OC)c2)C1 (stereo not given) | 0.0407 (≈ 135 µM)
60 | Cc1nnc(SCC(=O)NC(=O)NC(C)C)s1 | > 0.0412
61 | COc1ccccc1OCC(=O)Nc1ccncc1 | > 0.0387
62 | O=c1[nH]c(CSc2nc3ccccc3s2)nc2ccccc12 | 0.0015 (≈ 4.61 µM)
63 | CCOC(=O)C(O)(c1ccc(N=c2ccccn2C)cc1)C(F)(F)F (stereo not given) | 0.0463 (≈ 131 µM)
64 | Cc1cc(C)nc(NC(=O)c2ccc(C)o2)n1 | > 0.0347
65 | Cc1ccc2nc(CCc3ccc(N)cc3)[nH]c2c1.Cl | > 0.0486
66 | CN(C(=O)CSc1cccc[n+]1[O-])c1ccccc1 | 0.0355 (≈ 129 µM)
67 | Cc1ccc(S(=O)(=O)N2CCOCC2)cc1NC(=O)COC(=O)c1cncc(Br)c1 | > 0.0748
68 | O=C(NCc1ccc(F)cc1)Nc1ccc(Cl)cc1 | 0.0011 (≈ 3.95 µM)
69 | COc1ccc(/C=C(\C#N)C(=O)OCC(=O)NC2CC2)cc1 | 0.0101 (≈ 33.6 µM)
70 | COc1ccccc1OCC(=O)Nc1ccc(NC(=O)COc2ccccc2OC)cc1 | 0.0014 (≈ 3.21 µM)
71 | O=C(CN1C(=O)COc2ccc(Cl)cc21)Nc1nccs1 | 0.0014 (≈ 4.32 µM)
72 | Cc1ccc(NC(=O)c2cccnc2)cc1S(=O)(=O)N(C)C | > 0.0479
73 | O=C(Nc1cccnc1Cl)c1ccc(=O)oc1 | > 0.0376
74 | CC1CCN(Cc2cc(=O)oc3ccc4ccccc4c23)CC1 | 0.0023 (≈ 7.48 µM)
75 | Cc1cccc(C)c1OP(N)(=O)Oc1c(C)cccc1C | 0.0108 (≈ 35.4 µM)
76 | O=c1[nH]c2ccccc2nc1C(F)(F)F | > 0.0321
77 | Cc1ccc2c(c1)C(O)(CC(=O)c1cccc(-n3cccc3)c1)C(=O)N2 (stereo not given) | 0.0072 (≈ 20.8 µM)
78 | O=S(=O)(NCC(O)c1ccccc1)c1cc(Cl)sc1Cl (stereo not given) | 0.0497 (≈ 141 µM)

Further lines, results first:

Row | solubility kinetic [mg/mL] | Compound
79 | 0.0357 (≈ 108 µM) | Cc1cc(Cl)ccc1C(=O)C1CCCN(C(=O)c2ccoc2)C1 (stereo not given)
80 | 0.0452 (≈ 136 µM) | CC1(C)C2C/C(=N\O)C(C)(/[N+]([O-])=C/c3cccc([N+](=O)[O-])c3)CC21 (stereo not given)
81 | 0.0158 (≈ 50.7 µM) | Cc1ccc(Oc2ccccc2NC(=O)C2=COCCO2)cc1
82 | 0.0162 (≈ 55.4 µM) | O=C(c1cc2cc([N+](=O)[O-])ccc2s1)N1CCOCC1
83 | 0.0034 (≈ 9.87 µM) | CC1=C(C(=O)OCC2CCCCC2)C(c2ccc(O)cc2)NC(=O)N1 (stereo not given)
84 | 0.0007 (≈ 2.6 µM) | CC(=O)Nc1nc(-c2cc([N+](=O)[O-])cs2)cs1
85 | > 0.0466 | Cc1nc(NC(=O)CN2CCCCC2)sc1C(=O)N(C)C
86 | 0.0279 (≈ 94.1 µM) | c1ccc(CN2CCC3(CC2)Nc2ccccc2S3)cc1
87 | > 0.0446 | CC(CCc1ccccc1)NC(=O)c1ccccc1C(=O)O (stereo not given)
88 | 0.0367 (≈ 139 µM) | Cc1nc(CC(=O)c2ccc(O)c(C)c2O)cs1
89 | > 0.0617 | CN(CC(=O)Nc1c(Cl)cccc1Cl)CC(=O)N(C)C1(C#N)CCCCC1
90 | > 0.0332 | O=C(NCCc1cnc[nH]1)c1cccs1
91 | 0.0013 (≈ 4.41 µM) | CN(C)c1cc(-c2cccc([N+](=O)[O-])c2)oc(=O)c1Cl
92 | 0.001 (≈ 2.04 µM) | O=C(Nc1ccc(N2CCOCC2)c(S(=O)(=O)Nc2ccccc2Cl)c1)c1ccc(F)cc1
93 | < 0.0002 | Cc1nc(Nc2ccc(Cl)cc2)c2oc3ccccc3c2n1
94 | < 0.0006 | COC(=O)c1sccc1NC(=O)c1cccc(Cl)c1
95 | 0.003 (≈ 8.02 µM) | O=S(=O)(NCc1c(Cl)cccc1Oc1ccccc1)c1ccccc1
96 | 0.0319 | CCCC[n+]1c(C)sc2cc(OC)ccc21.[I-]
97 | < 0.0008 | Cc1ccc(/C=C2\SC(=S)N(C3CCS(=O)(=O)C3)C2=O)cc1 (stereo not given)
98 | > 0.0445 | O=S(=O)(Cc1ccc(Cl)cc1)NCc1cccnc1
99 | > 0.052 | CC(NC(=O)c1cc(-c2ccccc2)nc2ccccc12)C1CCCO1 (stereo not given)

Row | solubility kinetic [mg/mL] | Compound
100 | 0.0401 (≈ 148 µM) | Cc1nc2ccccc2n1CCOc1ccc(F)cc1
101 | 0.0048 (≈ 16.8 µM) | Cc1ccc(C(=O)CCC(=O)Nc2ccccc2F)cc1
102 | 0.0435 (≈ 112 µM) | O=C1C2CCCCN2C(=O)N1CCCCN1CCN(c2ccc(F)cc2)CC1 (stereo not given)
103 | > 0.0466 | CCCc1nnc(NC(=O)CCC(=O)N2CCCCC2)s1
104 | > 0.0413 | O=C(O)C1CCN(S(=O)(=O)c2cccs2)CC1
105 | 0.0038 (≈ 10.8 µM) | Cc1ccc(NC(=O)CN2c3cccc4cccc(c34)S2(=O)=O)cc1
106 | > 0.0522 | CCOc1ccc(Nc2nc(NCC(=O)O)nc(N)c2[N+](=O)[O-])cc1
107 | > 0.0432 | COc1cc(C(=O)Nc2cccnc2)cc(OC)c1OC
108 | 0.0444 (≈ 124 µM) | COc1cccc(NC(=S)N(CCC(C)C)C(C)c2ccncc2)c1 (stereo not given)
109 | 0.0039 (≈ 18 µM) | COc1ccccc1-c1ccc(/C=N/O)o1
110 | 0.0459 (≈ 129 µM) | CC(Oc1ccc(Br)cc1Cl)C(=O)Nc1ccncc1 (stereo not given)
111 | 0.0169 (≈ 71.5 µM) | CCOC(=O)c1cc(C)nc(SC)c1C#N
112 | 0.0268 (≈ 91 µM) | C=CCn1c(COc2ccc(OC)cc2)nc2ccccc21
113 | > 0.0569 | Cc1ccc(C(=O)C2=C(O)C(=O)N(c3ncccn3)C2c2ccc(F)cc2)o1 (stereo not given)
114 | > 0.039 | CCCc1c(C)nn(-c2ncccc2[N+](=O)[O-])c1C
115 | 0.0101 (≈ 28.7 µM) | CCn1c2ccccc2c2cc(NC(=O)C(=O)N3CCOCC3)ccc21
116 | < 0.0003 | COc1ccccc1C(=O)Nc1cccc2cccnc12
117 | > 0.0437 | C/C(=N/NC(=O)CNC(=O)c1cccs1)c1ccco1
118 | 0.0058 (≈ 14.8 µM) | Cc1cccc(CSc2nc3c(c(-c4cccs4)c2C#N)CN(C)CC3)c1
119 | 0.0695 (≈ 132 µM) | COc1ccc2c(c1)C(=O)N(CCc1ccc(S(=O)(=O)NC(=O)NC3CCCCC3)cc1)C(=O)C2(C)C
120 | 0.0363 | Cc1sc2c3ccsc3ccc2[n+]1C.[I-]
